Test results reported in US10759826B2, “15β-substituted estrone derivatives as selective inhibitors of 17β-hydroxysteroid-dehydrogenases, method of preparation and use thereof” (USTAV ORGANICKE CHEMIE A BIOCHEMIE AV CR, V.V.I., priority 2016, dated 2020).

Assays:
[1] = biological target: T1, human 17βHSD type 5 (Homo sapiens, UniProt P42330); assay: Inhibition of recombinant 17βHSD type 5, tritium-labeled substrate conversion; format: biochemical; conditions: 1 μmol · l^−1 test substance
T1 construct: made in house; host or cells: bacteria (Escherichia coli); supernatant of the lysate
T1 sequence (P42330 1-323): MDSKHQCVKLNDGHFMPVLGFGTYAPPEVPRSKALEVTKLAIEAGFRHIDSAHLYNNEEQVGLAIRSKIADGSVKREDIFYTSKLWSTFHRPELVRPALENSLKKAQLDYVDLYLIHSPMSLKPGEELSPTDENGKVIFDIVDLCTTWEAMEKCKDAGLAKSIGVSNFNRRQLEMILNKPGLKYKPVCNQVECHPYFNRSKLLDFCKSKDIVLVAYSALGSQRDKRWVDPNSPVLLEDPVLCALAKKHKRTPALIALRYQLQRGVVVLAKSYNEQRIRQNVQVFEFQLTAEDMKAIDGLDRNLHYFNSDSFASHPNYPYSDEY
Experimental: The inhibitory activity of the test substances was determined for individual isoenzymes from the 17βHSD family, specifically these were the types 1, 2, 3, 4, 5 and 7. Escherichia coli and mammalian cells expression systems were used for recombinant expression of individual isozymes of human 17βHSD. Only in the case of 17HSD5 the enzyme was partially purified and supernatant obtained by centrifugation of the bacterial lysate was used for testing. Systems expressing specific 17βHSD type were suspended in a reaction buffer and incubated with tritium-labeled substrates and respective cofactors at 37° C. in two parallel tests: the control arrangement (DMSO without the inhibitor) and the test arrangement (DMSO with the inhibitor). DMSO serves as a negative control in this case. After 20-30% of the substrate was converted by the activity of the enzyme to the product in a control test, both tests were terminated. Substrate and product from the test arrangement were isolated by SPE (solid phase extraction), and then separated by reverse phase HPLC. Substrate conversion was determined by integration of the signals of the substrate and product, and was expressed in %. For the purposes of the subsequent calculation of enzyme inhibition, the conversion of the control test was designated as 0% inhibition. All tests were performed in triplicates. IC50 values were subsequently determined by a standard method using the “One Ligand Binding” model of SigmaPlot kinetics module (Schustera et. al. J. Ster. Biochem. Mol. Biol. 2011, 125, 148; Möller et. al. Biioorg. Med. Chem. Lett. 2009, 19, 6740; Möller et. al. PLoS One, 2010, 5, 6, e10969).

[2] = test system: U2OS cells; assay: Cell viability (ATP) of unmodified U2OS cells, parallel to reporter assay; format: cell-based, human; conditions: Homo sapiens
Experimental: To separate the antagonist activity of test compounds from the cytotoxic effect on U2OS cells (cell line derived from osteosarcoma), an experiment for determination of cell viability was performed in parallel with the reporter assay. Original, genetically unmodified U2OS cells were grown under the same conditions as the reporter cells. These cells were further treated and incubated with the compounds in a completely identical manner and for the same time as cells in the reporter assay. At the end of the experiment, the amount of ATP was determined using BriteLite luciferase homogeneous assay as a measure of cell viability. The data were then processed together with data from the reporter assays.

[3] = biological target: T2, estrogen receptor α (ERα) (Homo sapiens, UniProt P03372); assay: ERα luciferase reporter assay in U2OS cells; format: cell-based; conditions: for Emax: U2OS, read-out: efficacy of ERα activation, % of the maximal effect produced by E2; for EC50: agonist mode, U2OS reporter, 24 h; for IC50: antagonist mode, 1 nmol·l^−1 E2
T2 construct: expressed in transfected cells
T2 sequence (P03372 1-595): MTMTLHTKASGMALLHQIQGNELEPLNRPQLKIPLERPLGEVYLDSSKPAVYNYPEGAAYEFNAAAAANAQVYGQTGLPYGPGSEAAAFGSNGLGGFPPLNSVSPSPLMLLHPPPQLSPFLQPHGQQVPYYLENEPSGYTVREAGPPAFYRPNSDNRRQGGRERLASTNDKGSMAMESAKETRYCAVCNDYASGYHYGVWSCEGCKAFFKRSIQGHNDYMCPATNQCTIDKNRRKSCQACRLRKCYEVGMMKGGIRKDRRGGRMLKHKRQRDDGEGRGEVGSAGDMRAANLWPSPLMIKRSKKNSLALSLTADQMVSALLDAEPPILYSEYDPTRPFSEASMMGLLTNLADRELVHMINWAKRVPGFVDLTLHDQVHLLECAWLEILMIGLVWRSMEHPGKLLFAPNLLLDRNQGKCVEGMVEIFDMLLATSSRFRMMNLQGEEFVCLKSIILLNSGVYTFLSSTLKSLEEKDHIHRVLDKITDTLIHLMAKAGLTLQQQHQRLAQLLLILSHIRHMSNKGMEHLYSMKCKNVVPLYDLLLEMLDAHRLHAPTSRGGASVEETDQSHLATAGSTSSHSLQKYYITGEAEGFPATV

[4] = test system: MDA-MB-231; assay: 7 day proliferation assay, MDA-MB-231; format: cell-based; conditions: 1 μmol·l^−1, 7 days
Experimental: (§1) In this study, T47D cells were propagated in RPMI 1640 medium supplemented with 10% fetal bovine serum, 2 mmol^·l^−1 glutaMAX (Thermo Fisher Scientific, MA, USA), and penicillin/streptomycin (Thermo Fisher Scientific, Waltham, USA) and incubated in a 5% CO2-humidified atmosphere at 37° C. to the amount needed for the experiment. Two days prior to testing of compounds, growth medium was changed to medium without phenol red, supplemented with 2 mmol^·l^−1 Glutamax and 4% FBS depleted of lipophilic components (including the endogenous estrogenic substances) (Hyclone, GE Healthcare Life Sciences, USA). Two days after the medium replacement, the cells were harvested, counted and resuspended in a medium. Cells were dispensed with liquid dispenser Multidrop (Thermo Fisher Scientific, Waltham, USA), to the cell culture treated, 12-well plates (Corning Inc., NY, USA) at 100 000 cells/well in 1 mL of total media volume. […] After 7 days of cell cultivation with compounds, cells were harvested and counted. […]
(§2) Compounds 9 and 12 were tested in the proliferation assay with cell lines derived from the triple negative breast cancer (MDA-MB-231), AR-negative prostate cancer (PC3, DU145) and ovarian cancer (SK-OV-3, CaoV-3). […] At the end of the treatment, cells were harvested and counted. […]

[5] = biological target: T3, progesterone receptor (PR) (Homo sapiens, UniProt P06401); assay: PR luciferase reporter assay in U2OS cells; format: cell-based; conditions: read-out: ANTAGONIST mode PR IC50
T3 construct: expressed in transfected cells

[6] = test system: PC3; assay: 7 day proliferation assay, PC3; format: cell-based; conditions: 1 μmol·l^−1, 7 days
Experimental: as §1, §2

T3 sequence (P06401 whole entry): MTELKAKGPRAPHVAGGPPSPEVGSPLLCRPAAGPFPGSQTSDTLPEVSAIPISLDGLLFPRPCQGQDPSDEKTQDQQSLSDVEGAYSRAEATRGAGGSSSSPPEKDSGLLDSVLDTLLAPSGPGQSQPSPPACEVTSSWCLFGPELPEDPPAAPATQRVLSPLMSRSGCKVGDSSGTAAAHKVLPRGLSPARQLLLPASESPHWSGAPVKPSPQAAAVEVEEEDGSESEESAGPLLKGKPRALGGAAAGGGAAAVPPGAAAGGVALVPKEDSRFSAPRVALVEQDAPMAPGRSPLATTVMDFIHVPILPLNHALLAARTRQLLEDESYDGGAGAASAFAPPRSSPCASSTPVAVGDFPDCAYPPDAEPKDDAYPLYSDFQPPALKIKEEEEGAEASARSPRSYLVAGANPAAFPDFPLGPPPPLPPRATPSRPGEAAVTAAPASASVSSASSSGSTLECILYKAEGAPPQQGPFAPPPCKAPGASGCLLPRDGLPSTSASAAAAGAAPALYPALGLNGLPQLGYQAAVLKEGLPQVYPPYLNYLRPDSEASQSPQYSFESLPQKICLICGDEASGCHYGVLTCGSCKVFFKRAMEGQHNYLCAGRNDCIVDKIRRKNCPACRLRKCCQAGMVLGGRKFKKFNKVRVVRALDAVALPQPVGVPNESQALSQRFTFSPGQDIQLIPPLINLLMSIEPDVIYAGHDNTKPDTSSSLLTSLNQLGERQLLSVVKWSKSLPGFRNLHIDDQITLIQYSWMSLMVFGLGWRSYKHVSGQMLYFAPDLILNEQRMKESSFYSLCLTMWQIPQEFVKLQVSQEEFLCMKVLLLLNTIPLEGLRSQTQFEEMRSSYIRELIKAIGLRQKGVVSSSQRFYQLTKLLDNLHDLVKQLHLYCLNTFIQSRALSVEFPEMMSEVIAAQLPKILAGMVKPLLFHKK

| Structure (SMILES) | % of inhibition of human 17βHSD5 [1] | IC50 [2] | Emax [3] | EC50 [3] | IC50 [3] | % of survived cells compared to untreated samples, MDA-MB-231 [4] | IC50 [5] | % of survived cells compared to untreated samples, PC3 [6] | ER antagonism in words ([3]; testing range 10 μmol·l^−1 to 1 nmol·l^−1) |
| --- | --- | --- | --- | --- | --- | --- | --- | --- | --- |
| COc1ccc(CC[C@@H]2CC(=O)[C@@]3(C)CC[C@@H]4c5ccc(O)cc5CC[C@H]4[C@H]23)cc1 [Compound 9, 3-Hydroxy-15β-(4-methoxyphenethyl)-estra-1,3,5 (10)-trien-17-one] | 91% | > 100 µM | < 40% | > 10 µM | 23.5 µM | 106% | 13.6 µM | 96% |  |
| CCOc1ccc(CC[C@@H]2CC(=O)[C@@]3(C)CC[C@@H]4c5ccc(O)cc5CC[C@H]4[C@H]23)cc1 [Compound 12, 15β-(4-Ethoxyphenethyl)-3-hydroxy-estra-1,3,5(10)-trien-17-one] | 80% | > 100 µM | < 40% | > 10 µM | 29 µM | 98% | 13.7 µM | 98% | antagonists of both types of receptors |
